Results taken from ChEMBL document CHEMBL5465560, “Selectivity Literature for EUbOPEN Chemogenomic Library” (2024).

What was measured:
[1] = tested on: eIF-2-alpha kinase GCN2 (Homo sapiens), Q9P2K8 [S808G]; test: Selectivity interaction (KinomeScan (DiscoverX)) EUB0001049a EIF2AK4; settings: at 1 µM
[2] = target: Rho-associated protein kinase 2 (Homo sapiens, UniProt O75116); test: Selectivity interaction (ActivX KiNativ screen (kinase selectivity in THP-1 cell lysates)) EUB0000639a ROCK2; format: subcellular; settings: lysate
[3] = target: High affinity nerve growth factor receptor (Homo sapiens, UniProt P04629); test: Selectivity interaction (KinomeScan (DiscoverX)) EUB0000045b NTRK1
[4] = target: Serine/threonine-protein kinase SIK2 (Homo sapiens) (UniProt Q9H0K1); test: Selectivity interaction (KinomeScan (DiscoverX)) EUB0000045b SIK2
[5] = target: T1, Mitogen-activated protein kinase kinase kinase 5 (Homo sapiens) (UniProt Q99683); test: Selectivity interaction (ActivX KiNativ screen (ex vivo kinase selectivity in human PBMCs)) EUB0001619a MAP3K5; format: cell-based; settings: PBMC, at 1 µM
T1 sequence (whole entry): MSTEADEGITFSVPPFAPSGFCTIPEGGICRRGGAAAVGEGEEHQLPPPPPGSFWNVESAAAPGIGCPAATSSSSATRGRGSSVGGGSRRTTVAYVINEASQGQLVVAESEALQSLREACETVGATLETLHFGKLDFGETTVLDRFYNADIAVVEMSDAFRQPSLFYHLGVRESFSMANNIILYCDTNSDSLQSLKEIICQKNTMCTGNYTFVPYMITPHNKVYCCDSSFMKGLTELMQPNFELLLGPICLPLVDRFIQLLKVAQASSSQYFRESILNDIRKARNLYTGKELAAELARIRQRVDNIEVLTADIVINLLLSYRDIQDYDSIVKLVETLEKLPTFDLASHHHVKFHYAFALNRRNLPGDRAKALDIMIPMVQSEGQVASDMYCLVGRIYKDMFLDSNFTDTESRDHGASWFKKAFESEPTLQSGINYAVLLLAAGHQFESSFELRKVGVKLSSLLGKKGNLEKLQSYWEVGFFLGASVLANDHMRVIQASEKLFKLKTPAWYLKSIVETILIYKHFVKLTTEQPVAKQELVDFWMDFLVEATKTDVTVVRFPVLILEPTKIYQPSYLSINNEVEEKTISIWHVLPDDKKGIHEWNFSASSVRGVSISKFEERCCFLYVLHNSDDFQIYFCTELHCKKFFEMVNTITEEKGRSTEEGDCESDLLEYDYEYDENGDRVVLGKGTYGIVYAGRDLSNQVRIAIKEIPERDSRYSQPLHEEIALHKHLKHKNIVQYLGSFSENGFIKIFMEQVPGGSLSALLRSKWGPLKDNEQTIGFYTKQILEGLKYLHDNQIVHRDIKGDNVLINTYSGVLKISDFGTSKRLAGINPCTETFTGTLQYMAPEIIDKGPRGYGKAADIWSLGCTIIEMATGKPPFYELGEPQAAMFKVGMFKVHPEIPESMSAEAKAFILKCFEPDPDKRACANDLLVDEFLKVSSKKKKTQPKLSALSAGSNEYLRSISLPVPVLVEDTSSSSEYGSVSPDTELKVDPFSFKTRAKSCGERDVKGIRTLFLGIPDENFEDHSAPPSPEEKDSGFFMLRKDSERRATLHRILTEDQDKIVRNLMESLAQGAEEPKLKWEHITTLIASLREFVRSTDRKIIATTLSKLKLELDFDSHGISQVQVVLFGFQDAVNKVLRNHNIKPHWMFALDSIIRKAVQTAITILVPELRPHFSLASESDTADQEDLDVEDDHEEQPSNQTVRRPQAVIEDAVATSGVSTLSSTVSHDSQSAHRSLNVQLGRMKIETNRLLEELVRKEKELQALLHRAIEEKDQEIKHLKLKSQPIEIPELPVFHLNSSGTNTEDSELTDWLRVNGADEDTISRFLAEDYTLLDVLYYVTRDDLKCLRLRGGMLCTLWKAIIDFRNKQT

[6] = target: Rho-associated protein kinase 1 (Homo sapiens) (UniProt Q13464); test: Selectivity interaction (KinomeScan (DiscoverX)) EUB0000655a ROCK1; settings: at 10 µM
[7] = target: Serine/threonine-protein kinase tousled-like 2 (Homo sapiens) (UniProt Q86UE8); test: Selectivity interaction (KinomeScan (DiscoverX)) EUB0000655a TLK2; settings: at 10 µM
[8] = target: T2, NUAK family SNF1-like kinase 1 (Homo sapiens) (UniProt O60285); test: Selectivity interaction (KinomeScan (DiscoverX)) EUB0000607a NUAK1; settings: at 10 µM
T2 sequence (whole entry): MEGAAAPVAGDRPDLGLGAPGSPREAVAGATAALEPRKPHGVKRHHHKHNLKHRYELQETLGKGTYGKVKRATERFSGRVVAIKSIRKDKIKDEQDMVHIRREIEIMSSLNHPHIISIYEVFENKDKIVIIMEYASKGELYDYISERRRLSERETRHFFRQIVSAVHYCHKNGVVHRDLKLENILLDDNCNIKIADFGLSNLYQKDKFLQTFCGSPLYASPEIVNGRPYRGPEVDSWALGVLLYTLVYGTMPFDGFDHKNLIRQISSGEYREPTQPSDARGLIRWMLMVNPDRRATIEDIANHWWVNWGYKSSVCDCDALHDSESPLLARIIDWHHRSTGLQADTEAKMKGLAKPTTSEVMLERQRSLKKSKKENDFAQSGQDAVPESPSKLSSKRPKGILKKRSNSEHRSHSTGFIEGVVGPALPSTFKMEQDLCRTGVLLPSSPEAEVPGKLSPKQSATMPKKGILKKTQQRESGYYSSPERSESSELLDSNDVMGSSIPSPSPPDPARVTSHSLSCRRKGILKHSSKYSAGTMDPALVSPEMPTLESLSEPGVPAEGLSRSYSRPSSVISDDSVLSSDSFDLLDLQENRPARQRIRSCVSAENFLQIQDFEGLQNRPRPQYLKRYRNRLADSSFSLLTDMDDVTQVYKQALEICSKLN

[9] = target: Dual specificity mitogen-activated protein kinase kinase 1 (Homo sapiens, UniProt Q02750); test: Selectivity interaction (Rxn Biology Kinase assay) EUB0001632a MAP2K1; settings: at 10 µM
Sequence of Dual specificity mitogen-activated protein kinase kinase 1 (Q02750 whole entry): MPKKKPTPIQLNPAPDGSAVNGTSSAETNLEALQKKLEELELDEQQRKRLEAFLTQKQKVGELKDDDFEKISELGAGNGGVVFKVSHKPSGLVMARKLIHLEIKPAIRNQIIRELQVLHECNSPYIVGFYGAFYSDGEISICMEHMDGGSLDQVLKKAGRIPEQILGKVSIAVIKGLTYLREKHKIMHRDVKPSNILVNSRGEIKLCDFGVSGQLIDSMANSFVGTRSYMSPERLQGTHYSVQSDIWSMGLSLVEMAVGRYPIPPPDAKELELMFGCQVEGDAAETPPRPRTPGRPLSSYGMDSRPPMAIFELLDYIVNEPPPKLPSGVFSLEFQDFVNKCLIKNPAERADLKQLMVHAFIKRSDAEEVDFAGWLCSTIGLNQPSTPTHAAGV

Sequence of Rho-associated protein kinase 2 (O75116 whole entry, looked up): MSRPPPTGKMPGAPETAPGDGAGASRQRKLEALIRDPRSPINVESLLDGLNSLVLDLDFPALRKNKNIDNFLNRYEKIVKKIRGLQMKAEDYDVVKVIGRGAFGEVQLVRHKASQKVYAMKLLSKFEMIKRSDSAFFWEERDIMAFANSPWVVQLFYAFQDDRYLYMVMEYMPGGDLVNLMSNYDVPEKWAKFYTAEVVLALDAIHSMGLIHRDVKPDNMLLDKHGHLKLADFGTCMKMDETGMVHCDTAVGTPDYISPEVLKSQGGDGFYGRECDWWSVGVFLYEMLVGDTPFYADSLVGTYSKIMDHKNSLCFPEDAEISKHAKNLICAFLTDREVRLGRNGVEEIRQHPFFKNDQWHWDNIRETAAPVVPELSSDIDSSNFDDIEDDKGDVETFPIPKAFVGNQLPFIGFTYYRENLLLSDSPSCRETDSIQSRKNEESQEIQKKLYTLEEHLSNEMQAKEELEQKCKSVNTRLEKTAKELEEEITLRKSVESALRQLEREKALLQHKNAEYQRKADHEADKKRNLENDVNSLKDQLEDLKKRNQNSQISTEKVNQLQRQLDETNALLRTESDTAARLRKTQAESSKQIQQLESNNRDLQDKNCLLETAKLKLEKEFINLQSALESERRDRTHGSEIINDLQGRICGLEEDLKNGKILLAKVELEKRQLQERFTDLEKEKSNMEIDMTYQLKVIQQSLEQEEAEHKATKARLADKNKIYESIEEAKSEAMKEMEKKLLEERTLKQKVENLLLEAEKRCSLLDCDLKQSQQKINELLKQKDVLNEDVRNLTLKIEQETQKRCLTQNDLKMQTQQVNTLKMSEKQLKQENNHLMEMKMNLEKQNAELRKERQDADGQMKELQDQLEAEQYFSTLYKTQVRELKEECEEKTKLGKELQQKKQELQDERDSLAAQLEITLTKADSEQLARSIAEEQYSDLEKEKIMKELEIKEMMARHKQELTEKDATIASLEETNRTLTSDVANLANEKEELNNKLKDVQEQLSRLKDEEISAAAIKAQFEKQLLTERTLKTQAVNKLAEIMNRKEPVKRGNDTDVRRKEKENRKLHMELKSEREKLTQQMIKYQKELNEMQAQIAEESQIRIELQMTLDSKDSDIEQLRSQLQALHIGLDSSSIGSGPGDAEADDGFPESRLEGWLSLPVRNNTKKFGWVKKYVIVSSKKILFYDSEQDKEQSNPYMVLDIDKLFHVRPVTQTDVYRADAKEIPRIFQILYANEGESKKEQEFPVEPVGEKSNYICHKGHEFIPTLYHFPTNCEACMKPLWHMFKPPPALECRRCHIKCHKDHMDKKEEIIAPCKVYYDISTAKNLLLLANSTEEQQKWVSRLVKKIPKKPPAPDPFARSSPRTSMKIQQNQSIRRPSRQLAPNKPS
Sequence of High affinity nerve growth factor receptor (P04629 33-796 limits assumed): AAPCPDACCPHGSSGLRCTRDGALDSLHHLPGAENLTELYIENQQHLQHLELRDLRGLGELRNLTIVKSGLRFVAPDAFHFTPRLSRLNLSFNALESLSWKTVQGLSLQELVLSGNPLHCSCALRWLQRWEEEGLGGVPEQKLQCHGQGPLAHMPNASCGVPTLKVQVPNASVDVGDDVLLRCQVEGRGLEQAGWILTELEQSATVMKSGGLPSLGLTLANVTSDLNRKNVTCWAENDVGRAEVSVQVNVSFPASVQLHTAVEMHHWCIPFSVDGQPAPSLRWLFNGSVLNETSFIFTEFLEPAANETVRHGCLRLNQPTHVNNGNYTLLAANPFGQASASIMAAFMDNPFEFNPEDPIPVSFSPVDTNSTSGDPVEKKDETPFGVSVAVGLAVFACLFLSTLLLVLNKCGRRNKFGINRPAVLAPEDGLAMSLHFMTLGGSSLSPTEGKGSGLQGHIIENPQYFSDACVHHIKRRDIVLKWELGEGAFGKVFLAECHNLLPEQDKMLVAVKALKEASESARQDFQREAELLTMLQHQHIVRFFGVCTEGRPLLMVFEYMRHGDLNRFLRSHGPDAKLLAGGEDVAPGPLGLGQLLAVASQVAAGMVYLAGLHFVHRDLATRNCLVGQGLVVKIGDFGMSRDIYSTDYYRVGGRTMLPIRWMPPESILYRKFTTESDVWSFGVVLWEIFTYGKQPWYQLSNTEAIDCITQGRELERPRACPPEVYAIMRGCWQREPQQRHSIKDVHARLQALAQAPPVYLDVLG
Sequence of Serine/threonine-protein kinase SIK2 (Homo sapiens) (Q9H0K1 whole entry, looked up): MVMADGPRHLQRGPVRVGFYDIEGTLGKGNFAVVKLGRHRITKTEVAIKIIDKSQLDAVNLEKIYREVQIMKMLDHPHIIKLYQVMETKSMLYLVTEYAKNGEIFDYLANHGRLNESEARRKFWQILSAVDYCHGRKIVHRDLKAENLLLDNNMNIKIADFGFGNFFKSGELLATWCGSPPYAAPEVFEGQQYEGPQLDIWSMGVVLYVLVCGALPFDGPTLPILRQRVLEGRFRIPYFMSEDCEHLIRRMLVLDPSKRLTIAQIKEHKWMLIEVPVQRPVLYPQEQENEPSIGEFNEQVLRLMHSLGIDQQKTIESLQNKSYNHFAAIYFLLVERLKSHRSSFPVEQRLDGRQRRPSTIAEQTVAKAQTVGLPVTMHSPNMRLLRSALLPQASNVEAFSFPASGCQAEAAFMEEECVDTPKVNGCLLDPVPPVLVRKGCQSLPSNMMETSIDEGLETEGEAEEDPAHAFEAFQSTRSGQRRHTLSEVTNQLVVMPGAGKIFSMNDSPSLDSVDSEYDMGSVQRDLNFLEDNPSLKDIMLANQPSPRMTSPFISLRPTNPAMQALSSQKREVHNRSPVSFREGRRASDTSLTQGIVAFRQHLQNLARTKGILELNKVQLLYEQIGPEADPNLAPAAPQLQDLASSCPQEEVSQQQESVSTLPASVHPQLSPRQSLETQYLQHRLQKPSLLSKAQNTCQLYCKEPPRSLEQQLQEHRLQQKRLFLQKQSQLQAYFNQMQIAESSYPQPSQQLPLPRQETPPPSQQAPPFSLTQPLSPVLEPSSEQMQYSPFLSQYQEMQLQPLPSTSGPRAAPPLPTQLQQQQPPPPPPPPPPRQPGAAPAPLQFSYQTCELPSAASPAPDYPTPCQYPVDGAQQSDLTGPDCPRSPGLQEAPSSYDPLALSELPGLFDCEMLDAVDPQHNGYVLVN
Sequence of Serine/threonine-protein kinase tousled-like 2 (Homo sapiens) (Q86UE8 whole entry, looked up): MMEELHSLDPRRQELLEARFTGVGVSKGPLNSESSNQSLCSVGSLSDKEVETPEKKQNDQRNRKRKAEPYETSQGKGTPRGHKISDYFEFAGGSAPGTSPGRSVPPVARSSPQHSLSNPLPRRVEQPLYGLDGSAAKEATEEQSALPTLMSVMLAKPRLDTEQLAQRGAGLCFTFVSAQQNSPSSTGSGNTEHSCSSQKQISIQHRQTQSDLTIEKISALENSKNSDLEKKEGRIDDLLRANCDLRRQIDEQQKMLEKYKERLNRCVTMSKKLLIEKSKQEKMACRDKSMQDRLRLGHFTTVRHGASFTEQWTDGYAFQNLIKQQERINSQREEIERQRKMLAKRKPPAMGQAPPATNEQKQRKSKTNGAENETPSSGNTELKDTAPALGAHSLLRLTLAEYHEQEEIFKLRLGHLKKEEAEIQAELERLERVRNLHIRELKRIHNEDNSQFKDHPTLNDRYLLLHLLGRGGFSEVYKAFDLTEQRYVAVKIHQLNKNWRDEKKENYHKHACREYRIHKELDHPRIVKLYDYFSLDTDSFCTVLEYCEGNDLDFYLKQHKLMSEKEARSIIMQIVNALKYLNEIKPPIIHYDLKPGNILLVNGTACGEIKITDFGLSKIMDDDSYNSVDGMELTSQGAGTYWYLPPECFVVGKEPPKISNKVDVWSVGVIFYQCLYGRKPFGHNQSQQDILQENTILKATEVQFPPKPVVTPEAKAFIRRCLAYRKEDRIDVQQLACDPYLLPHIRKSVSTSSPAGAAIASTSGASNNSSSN

COc1cc(Nc2nc(C)cc(-c3cnn4nc(OC)ccc34)n2)cc(C(F)(F)F)c1
% of control [1]: 100%

CC[C@@H]1[C@H](F)C(=O)N[C@@H]1COc1nccc2cc(C(N)=O)c(OC)cc12 [ZIMLOVISERTIB]
% of inhibition ([2]; at 0.01 µM): 12.6%
% of inhibition ([2]; at 0.04 µM): -4.3%
% of inhibition ([2]; at 0.2 µM): -10.6%
% of inhibition ([2]; at 1 µM): 18.3%
% of inhibition ([2]; at 5 µM): 53.9%

C=CC(=O)Nc1cc(-n2c(=O)ccc3cnc4ccc(-c5ccc(NS(C)(=O)=O)cc5)cc4c32)ccc1C
% of control ([3]; at 1 µM): 100%
% of control ([3]; at 10 µM): 100%
% of control ([4]; at 1 µM): 100%
% of control ([4]; at 10 µM): 100%

N#Cc1cccc(-c2c[nH]c3ncnc(N4CCOCC4)c23)c1
% of inhibition [5]: 21%

CN(C)CCOc1ccc(-c2nc(-c3ccncc3)c(-c3ccc4c(c3)CC/C4=N\O)[nH]2)cc1
% of control [6]: 77%
% of control [7]: 86%

CNC(=O)Nc1ccc(-c2nc(N3CC4CCC(C3)O4)c3cnn(C4CCC5(CC4)OCCO5)c3n2)cc1
% of control [8]: 82%

Cn1cc(-n2cnc3c(NCc4nc5cc(Cl)c(Cl)cc5[nH]4)nc(N4CCOCC4)nc32)cn1
% of inhibition [9]: 4.54%
